Tests used:
Assay type in all cases: functional, organism-based
[1] = test system: Rattus norvegicus; test: Concentration at which no change in heart rate of anesthetized rat when administered intravenously was observed; 50-6400 ug/kg body weight
[2] = test system: Rattus norvegicus; test: Concentration at which increase cardiac inotropism of anesthetized rat when administered intravenously was observed; 50-6400 ug/kg body weight
[3] = test system: Rattus norvegicus; test: Concentration at which increase in tidal volume of anesthetized rat when administered intravenously was observed; 50-6400 ug/kg body weight
[4] = test system: Rattus norvegicus; test: Concentration at which decrease blood pressure of anesthetized rat when administered intravenously; 50-6400 ug/kg body weight
[5] = test system: Rattus norvegicus; test: Concentration at which increase in respiratory frequency of anesthetized rat when administered intravenously was observed; 50-6400 ug/kg body weight

Measured: Concentration

COc1ccc(/C=C\C(=O)NCCCC/N=C(\N)NCC=C(C)C)cc1OC
50 µg/kg: all assays above

Reference: ChEMBL document CHEMBL1126416, “Caracasanamide, a novel hypotensive agent from Verbesina caracasana” (Bioorg Med Chem Lett, 1992)
